Data reported in publication PMC7613620, “Reaction hijacking of tyrosine tRNA synthetase as a whole-of-life-cycle antimalarial strategy” (Science (New York, N.Y.), 2022).
Read-outs that look alike come from different tables or passages of the source.

Assays:
HCT116 = HCT116 cell viability (ATP content); assay type: cell-based; conditions: Homo sapiens, HCT-116, 72 h, read-out: HCT116 IC50(72h)
Experimental: (§1) 574 H1650 is a human lung cancer derived ATG7-null cell line (49) that can be used to assess effects on targets
(§2) 576 adenocarcinoma; bronchoalveolar carcinoma). Other cells lines used are: H460 (NCI-H460; human lung;
(§3) 577 carcinoma; large cell lung cancer; ATCC: HTB-177); and HCT116 (human colon; colorectal carcinoma;
(§4) 578 ATCC: CCL-247; Lot : 5056139). Each of the cell lines was received from the American Type Culture
(§5) 579 Collection (ATCC) and passaged twice before freezing. Cells were cultured in the presence or absence of
(§6) 580 inhibitors and cell viability was assessed by comparing the ATP content in compound-treated wells with
581 that in DMSO-treated wells as previously described (11). […]
585 37°C humidified incubator as adherent semi-confluent monolayers in complete Dulbecco’s Modified Eagle
586 Media (c-DMEM). DMEM (Gibco™, Thermo Fisher Scientific, Australia) was supplemented with 10%

[1] = SCID, mouse, in vivo, ip, 50 mg/kg
Experimental: 625 of 50 mg/kg of compound on day 3 post-infection and measuring the effect on blood parasitemia by
626 microscopic analysis of Giemsa-stained blood smears (on days 3, 4, 5, 6 and 7 post-infection). Mice were
630 Human biological samples were sourced ethically; and their research use was in accord with the terms of
631 the informed consent. All animal studies were ethically reviewed and carried out in accredited facilities in
632 accordance with the relevant country’s directives and the institution’s Policy on the Care, Welfare and
633 Treatment of Animals.
635 Plasma exposure in infected mouse model
637 blood samples (20 μL) were obtained at time points up to 24 hours after the first administration. Protein was
638 precipitated with acetonitrile and the remaining compound was assessed by LC-MS/MS in the selected reaction
641 Rat pharmacokinetics (PK) analyses
642 Sprague-Dawley rats (11 weeks old) were sourced from Hilltop Lab Animals, Inc (Scottdale, Pennsylvania,
643 USA). ML901 was formulated in EtOH: DMAC: PEG400: H2O at 1:1:4:4 (v/v) and 10% captisol in 50 […]
648 0.5% formic acid in methanol and the supernatants were analysed by positive ion electrospray LC-MS for
649 the administered compound. Non-compartmental pharmacokinetic parameters were calculated from […]
660 IGM Genomics Center on the Illumina HiSeq 2500 in RapidRun mode to generate 100bp paired-end reads.

P. falciparum (3D7) = P. falciparum (3D7) culture growth inhibition, 72 h; assay type: cell-based, Plasmodium falciparum; conditions: for IC50: Plasmodium falciparum
Experimental: (1 picture or pasted object on this page, not shown here)
553 Sigma-Aldrich) for 48-72 h. For drug pulse assays, tightly synchronized parasites (1-1.5% parasitemia,
554 0.2% final hematocrit) were added to the plates and incubated for 3 h. Drugs were removed and the
555 parasitemia assessed in the trophozoite stage of the next cycle.
557 Compounds were tested against a range of drug resistant field isolates and laboratory strains using a
558 modified [3H]-hypoxanthine incorporation assay, as previously reported (46). Field isolates 7G8, Cam3.1,
559 Dd2, K1, TM90C2B and NF54 were obtained from MR4 (www.beiresources.org).
561 Mammalian cell culture experiments
562 The HepG2 (Human hepatocyte carcinoma) cell line was procured from ATCC (American Type
563 Culture Collection, Manassas, USA; HB-8065) and viability assessed using Cell Titer-GLO luminescent
564 cell viability assay reagents (Promega, catalogue number: G7570) (47, 48). For the assay, 2000 cells/well
565 were plated in 384-well plates 24 h prior to the experiment and incubated at 37°C in a CO2 incubator. The
566 medium was removed and cells were treated with fresh medium containing either vehicle (0.5% DMSO)
567 or serially diluted test compounds or doxorubicin (1.3 nM to 25 µM) in a final volume of 50 µl/well and
568 further incubated for 72 h at 37°C in a CO2 incubator.
569 were treated with 5 µl of 1% Triton X-100 (final assay conc. 0.1%). Following incubation, 25 µl of medium
570 was discarded and 25 µl of Cell Titer-GLO reagent was added to each well and the plate was kept on a plate
571 shaker for 15 min at 25°C with shaking at 300 rpm. Luminescence signals were measured in a Spectramax
572 M5 reader (Molecular Devices).
as §1, §2, §3, §4, §5, §6
581 that in DMSO-treated wells as previously described (11).
583 HeLa cells (human cervical adenocarcinoma; genome sequenced (Garvin Institute, Australia) and verified

SMILES: Nc1ncnc2c1c(OC(F)F)nn2[C@@H]1O[C@H](COS(N)(=O)=O)[C@@H](O)[C@H]1O [ML901]
- IC50 (HCT116): 2280 nM
- exposure (area under the curve) [1]: 580 µM·h
- higher selectivity than AMS (P. falciparum (3D7); P. falciparum versus mammalian cell lines, compared with AMS): > 1,000 fold
- IC50 (P. falciparum (3D7); read-out: Pf3D7 IC50(72h), P. falciparum 3D7, 72 h): 2 ± 0.1 nM
- IC50 (P. falciparum (3D7); 3D7 parent of the in vitro evolution experiment, 72 h, read-out: IC50 (3D7)): 1.9 ± 0.1 nM
- selectivity towards P. falciparum (P. falciparum (3D7); versus different mammalian cell lines): 800- to 5,000 fold
